Data: patent publication US20260219274A1, “POLYOL SWEETNERS AND CARDIOVASCULAR AND THROMBOTIC EVENT RISK” (THE CLEVELAND CLINIC FOUNDATION, priority 2023, published 2026)

Columns and labels:
[1] = tested on: human whole blood; experiment: Whole blood in vitro thrombosis assay (collagen-coated microfluidic chip); assay type: cell-based
Method: Shear flow experiments of whole blood were performed with a Cellix Microfluidics System (Cellix, Dublin, Ireland) as previously described and outlined in additional methods.^41-43 The extent of platelet activation and adhesion to the collagen matrix was quantified using computer assisted tomographic analyses, as previously described.^40
Shear flow experiments of whole blood were performed with a Cellix Microfluidics System (Cellix, Dublin, Ireland) as previously described.^6-8 Before use, the micro channels of a Vena8 Fluoro+ biochip were coated with type 1 collagen (15 μL; 50 μg/mL) and each channel of the biochip then washed with PBS using the Mirus Nanopump. Images were taken with an HC Plan Apo 20X/0.7NA lens on a Leica DMI6000 inverted microscope equipped with an environmental chamber and a Hamamatsu ImagEM cooled CCD camera. […] Images of platelets adhering to the collagen matrix were recorded every 5 s. […] The extent of platelet activation and adhesion to the collagen matrix was quantified using computer assisted tomographic analyses as previously described.^5 Briefly, images of CD42b stained platelet thrombi were quantified using Image Pro plus software (Media Cybernetics, Rockville, Maryland, USA). The intensity threshold was chosen to select for specific staining and the integrated optical density (IOD, Area×Intensity) quantified. […]

[2] = cited from earlier work
[3] = tested on: washed human platelets; experiment: Intracellular calcium measurements in Fura 2-filled washed platelets; assay type: cell-based; settings: for thrombin-evoked intracellular Ca2+ release: submaximal (0.02 U) thrombin, pre-incubation with the polyol
Method: Measurement of intracellular calcium release in washed platelets was performed as previously described.^41 Further details are provided in supplemental methods.
To isolate washed platelets for intracellular Ca^2+ measurements, PRP was prepared as described above. Next, 100 nM prostaglandin E1 (PGE-1, Catalogue #P5512, Sigma, St. Louis, MO, USA) was added to the PRP and centrifuged at 500×g for 20 min at 22° C. as previously described.^6 After a gentle wash in a modified phosphate buffer saline (NaCl (137 mM), KCl (2.7 mM), Na2HPO4 (12 mM), MgCl2 (1 mM), and glucose (5.5 mM), pH 7.4) with PGE-1 (100 nM), the platelet pellet was spun again at 500×g for 20 min. The platelet pellet was re-suspended in modified Hank's buffered salt solution (HBSS-BSA-glucose; NaCl (0.137 M), KCl (5.4 mM), Na2HPO4 (0.25 mM KH2PO4 (0.44 mM), CaCl2 (1.3 mM), MgSO4 (1.0 mM), NaHCO3 (4.2 mM), glucose (5 mM) and BSA (0.1%)) with 100 nM PGE-1 and incubated with Fura 2-AM ([…]) at 22° C. After 30 min of incubation, an additional centrifugation at 500×g for 30 min was performed to remove excess Fura 2-AM. After resuspension in modified Hank's buffered salt solution the platelet pellet was incubated with xylitol at the indicated concentrations or vehicle for 30 min at 22° C. Intracellular Ca^2+ release was initiated by submaximal concentration of thrombin (0.02 U/mL) and changes in intracellular Ca^2+ monitored via Fura 2-AM fluorescence using 340/380 nm dual-wavelength excitation and an emission of 510 nm.
Washed platelets for intracellular Ca^2+ measurements were prepared by adding 100 nM prostaglandin E1 (PGE-1, Catalogue #P5512, Sigma, St. Louis, MO, USA) to PRP and centrifugation at 500×g, 20 min at 22° C. as previously described^26,51. […] Intra-cellular calcium release was induced by submaximal concentration of thrombin (0.02 U/mL) and changes monitored via Fura 2-AM fluorescence using 340/380 nm dual-wavelength excitation and an emission of 510 nm.

SMILES	rate of collagen-dependent platelet adhesion and thrombus formation ([1]; erythritol (45 μM), physiological shear conditions)	well tolerated daily dose ([2]; digestive tolerance)	effect on blood sugar / insulin ([2]; in vivo)	metabolism and excretion upon ingestion ([2]; in vivo)	thrombin-evoked intracellular Ca2+ release [3]	erythritol concentration eliciting significant increase in stimulus-dependent (thrombin) intracellular calcium ([3]; threshold, FIG. 17) [µM]	rate of collagen-dependent platelet adhesion and spreading ([1]; xylitol, physiological shear flow)
OC[C@@H](O)[C@@H](O)CO [erythritol]	significant enhancement	up to 1 g/kg	no short-term insulinemic or glycemic effects	poorly metabolized and mostly excreted in the urine	enhanced	45	–
OC[C@@H](O)[C@H](O)[C@@H](O)CO [xylitol]	–	–	negligible impact	–	dose-dependently enhanced	–	substantially accelerated
